Tested on: C. reinhardtii cells
Assay: Cellular uptake mechanism of triple nanocomplexes with the endocytosis inhibitor wortmannin
Assay type: cell-based, Chlamydomonas reinhardtii
Conditions: wortmannin 33 µM pretreatment 1 h, then pVEC-R6A/Cy3-labeled DNA/SV40 nanocomplex 1 h at 25°C; control TAP with 5% DMSO; microplate reader
Procedure: To evaluate the cellular uptake mechanism of the triple nanocomplexes in microalgae, a fluorescence‐based assay was performed with wortmannin (Sigma‐Aldrich, USA) to determine the potential involvement of endocytosis in the process. A volume of 100 µL of C. reinhardtii cells (1.5 × 10^7 cells mL^−1) per well was seeded in a 96‐well plate with wortmannin at a final concentration of 33 µM. Cells treated with TAP medium containing 5% dimethyl sulfoxide were used as controls. […] Finally, the Cy3 fluorescence intensity of the samples was measured at 532 nm using a TECAN microplate reader (Bionics, Korea).

Q: How did the “Reduction of normalized Cy3/chlorophyll a level compared to control” value turn out when COC[C@H]1OC(=O)c2coc3c2[C@@]1(C)C1=C(C3=O)[C@@H]2CCC(=O)[C@@]2(C)C[C@H]1OC(C)=O [wortmannin] was run?
A: 50%
